# Experimental data taken from patent publication US9475809B2, “Substituted oxopyridine derivatives and use thereof as factor xia/plasma” (BAYER PHARMA AKTIENGESELLSCHAFT, priority 2013, dated 2016).
# pIC50: −log10 of the molar value.
# Molecular target: human factor XIa (Homo sapiens (Human), UniProt P03951)
# Test: Measurement of FXIa inhibition (fluorogenic peptide substrate)
# Assay type: biochemical
# Conditions: factor XIa from Kordia 0.45 nM; substrate Boc-Glu(OBzl)-Ala-Arg-AMC; 30 min at 22° C.
# Description: a.1) Measurement of FXIa Inhibition
# The factor XIa inhibition of the inventive substances is determined using a biochemical test system which utilizes the reaction of a peptidic factor XIa substrate to determine the enzymatic activity of human factor XIa. Here, factor XIa cleaves from the peptic factor XIa substrate the C-terminal aminomethylcoumarin (AMC), the fluorescence of which is measured. The determinations are carried out in microtitre plates.
# In each case 1 μl of the diluted substance solutions is placed into the wells of white microtitre plates from Greiner (384 wells). […] After 15 min of incubation, the enzyme reaction is started by addition of 20 μl of the factor XIa substrate Boc-Glu(OBzl)-Ala-Arg-AMC dissolved in assay buffer (10 μM in assay buffer) from Bachem, the mixture is incubated at room temperature (22° C.) for 30 min and fluorescence is then measured (excitation: 360 nm, emission: 460 nm). The measured emissions of the test batches with test substance are compared to those of control batches without test substance (only dimethyl sulphoxide instead of test substance in dimethyl sulphoxide), and IC50 values are calculated from the concentration/activity relationships.
# Sequence of human factor XIa (P03951 388-625): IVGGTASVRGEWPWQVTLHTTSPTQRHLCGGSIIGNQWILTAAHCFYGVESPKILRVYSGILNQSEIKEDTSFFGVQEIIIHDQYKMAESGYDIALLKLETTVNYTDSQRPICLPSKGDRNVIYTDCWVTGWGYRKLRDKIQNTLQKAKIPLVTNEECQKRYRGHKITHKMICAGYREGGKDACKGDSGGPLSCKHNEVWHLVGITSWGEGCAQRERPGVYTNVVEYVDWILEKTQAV
# Sequence of human factor XIa (P03951 19-387 partner): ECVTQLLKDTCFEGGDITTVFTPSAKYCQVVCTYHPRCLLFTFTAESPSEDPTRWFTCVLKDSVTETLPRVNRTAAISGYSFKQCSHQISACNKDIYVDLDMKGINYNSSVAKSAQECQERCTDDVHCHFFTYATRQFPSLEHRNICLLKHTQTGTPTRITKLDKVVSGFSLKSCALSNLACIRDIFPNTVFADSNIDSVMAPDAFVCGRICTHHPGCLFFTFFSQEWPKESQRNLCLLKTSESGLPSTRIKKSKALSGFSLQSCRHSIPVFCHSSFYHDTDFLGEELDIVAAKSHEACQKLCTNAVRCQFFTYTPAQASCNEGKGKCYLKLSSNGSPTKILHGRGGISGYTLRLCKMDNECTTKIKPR
row,SMILES,pIC50
1,"O=C(Cn1c2c(c(-c3cc(Cl)ccc3Cl)cc1=O)C(=O)CC2)Nc1ccc(-c2nc(C(F)(F)F)n[nH]2)cc1 [Example 6, 2-[4-(2,5-Dichlorophenyl)-2,5-dioxo-2,5,6,7-tetrahydro-1H-cyclopenta[b]pyridin-1-yl]-N-{4-[3-(trifluoromethyl)-1H-1,2,4-triazol-5-yl]phenyl}acetamide]",6.26
2,"N#Cc1ccc(Cl)cc1-c1cc(=O)n(CC(=O)Nc2ccc(-c3cc(=O)[nH][nH]3)cc2)c2c1C(=O)CC2 [Example 14, 2-[4-(5-Chloro-2-cyanophenyl)-2,5-dioxo-2,5,6,7-tetrahydro-1H-cyclopenta[b]pyridin-1-yl]-N-[4-(5-oxo-2,5-dihydro-1H-pyrazol-3-yl)phenyl]acetamide]",6.85
3,"CN1Cc2c(c(-c3cc(Cl)ccc3Cl)cc(=O)n2CC(=O)Nc2ccc(-c3nnn[nH]3)cc2)C1=O [Example 2, 2-[4-(2,5-Dichlorophenyl)-6-methyl-2,5-dioxo-2,5,6,7-tetrahydro-1H-pyrrolo[3,4-b]pyridin-1-yl]-N-[4-(1H-tetrazol-5-yl)phenyl]acetamide]",6.47
4,"O=C(Cn1c2c(c(-c3cc(Cl)ccc3Cl)cc1=O)C(=O)CC2)Nc1ccc(-c2cc(=O)[nH][nH]2)cc1 [Example 7, 2-[4-(2,5-Dichlorophenyl)-2,5-dioxo-2,5,6,7-tetrahydro-1H-cyclopenta[b]pyridin-1-yl]-N-[4-(5-oxo-2,5-dihydro-1H-pyrazol-3-yl)phenyl]acetamide]",6.89
5,"N#Cc1ccc(Cl)cc1-c1cc(=O)n(CC(=O)Nc2ccc(-c3noc(=O)[nH]3)cc2)c2c1C(=O)CC2 [Example 13, 2-[4-(5-Chloro-2-cyanophenyl)-2,5-dioxo-2,5,6,7-tetrahydro-1H-cyclopenta[b]pyridin-1-yl]-N-[4-(5-oxo-4,5-dihydro-1,2,4-oxadiazol-3-yl)phenyl]acetamide]",7.47
6,"N#Cc1ccc(Cl)cc1-c1cc(=O)n(CC(=O)Nc2ccc(-c3noc(=O)[nH]3)cc2)c2c1C(=O)CCC2 [Example 16, 2-[4-(5-Chloro-2-cyanophenyl)-2,5-dioxo-5,6,7,8-tetrahydroquinolin-1(2H)-yl]-N-[4-(5-oxo-4,5-dihydro-1,2,4-oxadiazol-3-yl)phenyl]acetamide]",7.11
7,"O=C(Cn1c2c(c(-c3cc(Cl)ccc3Br)cc1=O)C(=O)CC2)Nc1ccc(-c2noc(=O)[nH]2)cc1 [Example 10, 2-[4-(2-Bromo-5-chlorophenyl)-2,5-dioxo-2,5,6,7-tetrahydro-1H-cyclopenta[b]pyridin-1-yl]-N-[4-(5-oxo-4,5-dihydro-1,2,4-oxadiazol-3-yl)phenyl]acetamide]",6.72
8,"O=C(Cn1c2c(c(-c3cc(Cl)ccc3Cl)cc1=O)C(=O)CC2)Nc1ccc(-c2nnn[nH]2)cc1 [Example 3, 2-[4-(2,5-Dichlorophenyl)-2,5-dioxo-2,5,6,7-tetrahydro-1H-cyclopenta[b]pyridin-1-yl]-N-[4-(1H-tetrazol-5-yl)phenyl]acetamide]",6.64
9,"O=C(Cn1c2c(c(-c3cc(Cl)ccc3Cl)cc1=O)C(=O)CC2)Nc1ccc(C(=O)O)cc1 [Example 4, 4-({[4-(2,5-Dichlorophenyl)-2,5-dioxo-2,5,6,7-tetrahydro-1H-cyclopenta[b]pyridin-1-yl]acetyl}amino)benzoic acid]",6.38
10,"O=C(Cn1c2c(c(-c3cc(Cl)ccc3C(F)(F)F)cc1=O)C(=O)CC2)Nc1ccc(-c2cc(=O)[nH][nH]2)cc1 [Example 11, 2-{4-[5-Chloro-2-(trifluoromethyl)phenyl]-2,5-dioxo-2,5,6,7-tetrahydro-1H-cyclopenta[b]pyridin-1-yl}-N -[4-(5-oxo-2,5-dihydro-1H-pyrazol-3-yl)phenyl]acetamide]",6.12
11,"O=C(Cn1c2c(c(-c3cc(Cl)ccc3Br)cc1=O)C(=O)CC2)Nc1ccc(-c2nnn[nH]2)cc1 [Example 9, 2-[4-(2-Bromo-5-chlorophenyl)-2,5-dioxo-2,5,6,7-tetrahydro-1H-cyclopenta[b]pyridin-1-yl]-N-[4-(1H-tetrazol-5-yl)phenyl]acetamide]",6.77
12,"O=C(Cn1c2c(c(-c3cc(Cl)ccc3Cl)cc1=O)C(=O)CC2)Nc1ccc(-c2cnc[nH]2)cc1 [Example 8, 2-[4-(2,5-Dichlorophenyl)-2,5-dioxo-2,5,6,7-tetrahydro-1H-cyclopenta[b]pyridin-1-yl]-N-[4-(1H-imidazol-5-yl)phenyl]acetamide]",6.33
